This note sets out measurements from patent US8778939B2, “Compounds” (Glaxo Group Limited, priority 2009, dated 2014).

Test [1] concerns the target T1, 6His-Tev-LRRK2 (1326-2527) (Homo sapiens, UniProt Q5S007).
T1 construct: A LRRK2 cDNA encoding residues 1326-2527 was received from Dundee University; made in house; host or cells: Spodoptera frugiperda (Sf9) insect cells, baculovirus
T1 sequence (Q5S007 1326-2527): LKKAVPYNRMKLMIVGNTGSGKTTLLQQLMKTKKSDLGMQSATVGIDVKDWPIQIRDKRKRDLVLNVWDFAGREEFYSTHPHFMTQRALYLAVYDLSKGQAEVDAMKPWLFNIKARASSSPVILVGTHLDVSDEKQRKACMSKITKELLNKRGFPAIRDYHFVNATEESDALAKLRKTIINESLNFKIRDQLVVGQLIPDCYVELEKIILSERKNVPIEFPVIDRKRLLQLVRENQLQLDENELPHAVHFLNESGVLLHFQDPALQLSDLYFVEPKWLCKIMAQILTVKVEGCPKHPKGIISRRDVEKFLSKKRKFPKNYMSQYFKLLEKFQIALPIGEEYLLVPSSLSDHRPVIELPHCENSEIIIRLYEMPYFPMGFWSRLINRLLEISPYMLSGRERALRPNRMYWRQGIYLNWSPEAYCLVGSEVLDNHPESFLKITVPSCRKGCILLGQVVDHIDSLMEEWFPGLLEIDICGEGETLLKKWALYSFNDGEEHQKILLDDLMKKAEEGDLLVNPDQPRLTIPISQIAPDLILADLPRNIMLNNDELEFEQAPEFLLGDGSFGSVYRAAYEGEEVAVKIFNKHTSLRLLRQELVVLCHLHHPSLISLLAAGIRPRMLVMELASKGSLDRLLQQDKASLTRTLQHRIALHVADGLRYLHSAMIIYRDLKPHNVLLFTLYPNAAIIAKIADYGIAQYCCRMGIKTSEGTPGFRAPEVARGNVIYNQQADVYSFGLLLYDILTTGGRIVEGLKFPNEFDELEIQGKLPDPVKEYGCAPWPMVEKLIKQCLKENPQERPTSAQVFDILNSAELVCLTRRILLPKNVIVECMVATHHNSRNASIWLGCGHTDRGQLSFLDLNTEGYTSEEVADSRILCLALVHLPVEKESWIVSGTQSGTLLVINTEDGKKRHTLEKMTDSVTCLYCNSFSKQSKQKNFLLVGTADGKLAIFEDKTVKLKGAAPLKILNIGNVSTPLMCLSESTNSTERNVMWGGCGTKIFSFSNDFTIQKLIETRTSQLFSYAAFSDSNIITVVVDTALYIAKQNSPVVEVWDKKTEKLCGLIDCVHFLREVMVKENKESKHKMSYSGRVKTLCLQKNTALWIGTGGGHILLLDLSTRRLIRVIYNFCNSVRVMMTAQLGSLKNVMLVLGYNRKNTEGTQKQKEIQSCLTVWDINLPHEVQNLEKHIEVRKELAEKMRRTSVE
Nature of the test: LRRK2 peptide substrate assay. In kind it is biochemical. The conditions noted are these: Biotin-LRRKtide peptide substrate, ATP at Km. Here is the method: Compounds of formula (I) may be tested for in vitro kinase activity in accordance with the following assays, using the non natural, in vitro, substrates moesin and the Longer Biotin-LRRKtide. Moesin and a shorter version of the peptide were identified as substrates in Jaleel et al, (2007, Biochem J, 405: 307-317).
LRRK2 Peptide Substrate Assay
(§1) a) 100 nl of a 1:4 serial dilution of test compound with a top final assay concentration of 30 μM is added to certain wells in a low volume 384 well black plate. 100 nl of DMSO is used in certain wells as controls.
b) 3 μl enzyme solution (80 nM purified recombinant 6His-Tev-LRRK2 (1326-2527) in assay buffer: 50 mM Hepes (pH 7.2), 10 mM MgCl2, 150 mM NaCl, 5% glycerol, 0.0025% triton X-100 and 1 mM DTT) is added to certain wells. […] Plates are then incubated for a further 1-2 hours at room temperature (incubation time varies depending upon rate and linearity of reaction with differing enzyme batches). d) 6 μl detection solution (50 nM Streptavidin SureLight® APC (PerkinElmer), 4 nM Eu-W1024 labelled anti-rabbit IgG antibody (PerkinElmer), 1:500 dilution (dilution determined on a batch to batch basis) of Phospho-Ezrin (Thr567)/Radixin (Thr564)/Moesin (Thr558) Polyclonal Antibody (New England Biolabs) and 60 mM EDTA in buffer: 40 mM Hepes (pH 7.2), 150 mM NaCl, 0.03% BSA) is added to each well. Plates are then incubated for a further 2 hours at room temperature before reading on a suitable plate reader (Excitation 330 nm, emission 620 nm (Eu) and 665 nm (APC)). Data is analysed using ActivityBase software (IDBS). LRRK2 AlphaScreen Protein Substrate Assay

In test [2] the target is T1, 6His-Tev-LRRK2 (1326-2527). Nature of the test: LRRK2 AlphaScreen desensitised protein substrate assay. In kind it is biochemical. Here is the method:
as §1
b) 3 μl enzyme solution (80 nM purified recombinant 6His-Tev-LRRK2 (1326-2527) in assay buffer: 50 mM Hepes (pH 7.2), 10 mM MgCl2, 150 mM NaCl, 5% glycerol, 0.0025% triton X-100 and 1 mM DTT) is added to certain wells.
Plates are then incubated for a further 1-2 hours at room temperature (incubation time varies depending upon rate and linearity of reaction with differing enzyme batches).
d) 6 μl detection solution (1:250 dilution of AlphaLisa Protein A Acceptor beads (PerkinElmer), 1:64 dilution of AlphaLisa Gluthathione Donor beads (PerkinElmer) and 1:600 dilution (dilution determined on a batch to batch basis) of Phospho-Ezrin (Thr567)/Radixin (Thr564)/Moesin (Thr558) Polyclonal Antibody (New England Biolabs) in a buffer: 50 mM Hepes (pH 7.5), 250 mM NaCl, 60 mM EDTA, 1% PEG and 0.01% Brij 35) is added to each well. Plates are then incubated for a further 2 hours at room temperature in the dark before reading on an EnVision™ plate reader with AlphaScreen HTS turbo option module and AlphaScreen settings. Data is analysed using ActivityBase software (IDBS).
LRRK2 AlphaScreen Desensitised Protein Substrate Assay
This is conducted as described for the LRRK2 alphascreen protein substrate assay, with the following differences: • 1. The concentration of ATP in the substrate solution was 2 mM. • 2. The plates were incubated for 20 minutes at room temperature following addition of the substrate solution. Pharmacological Data

Setting [3] is: read-out: pIC50 in the LRRK2 peptide substrate assay (converted).
The mark [4] stands for this setting: mean pIC50, read-out: LRRK2 peptide substrate assay (pIC50) (converted).
Setting [5] is: excess of ATP present (2 mM ATP), read-out: pIC50 in the LRRK2 alphascreen desensitised protein substrate assay (converted).
Where [6] appears, read: mean pIC50, GST-PS-Moesin (400-577) substrate, 2 mM ATP (excess of ATP present), read-out: LRRK2 alphascreen desensitised protein substrate assay (pIC50) (converted).

Each structure is given as a SMILES string.

As for `O=C(Nc1cccnc1)c1cc(CN2CCOCC2)ccc1OCc1ccccc1` [Example 69, 5-(4-Morpholinylmethyl)-2-[(phenylmethyl)oxy]-N-3-pyridinylbenzamide], the IC50 in test [1] (setting [3]) is at most 100 nM; in test [1] (setting [4]), 15.8 nM; in test [2] (setting [5]), at most 20000 nM; in test [2] (setting [6]) it was 501 nM.

Regarding `O=C(Nc1cccnc1)c1cc(CN2CCCC2)ccc1OCc1ccccc1` [Example 70, 2-[(Phenylmethyl)oxy]-N-3-pyridinyl-5-(1-pyrrolidinylmethyl)benzamide], the IC50 in test [1] (setting [3]) was at most 100 nM; in test [2] (setting [5]) it was at most 20000 nM.

Turning to `CN(C)Cc1ccc(OCc2ccccc2)c(C(=O)Nc2cccnc2)c1` [Example 71, 5-[(Dimethylamino)methyl]-2-[(phenylmethyl)oxy]-N-3-pyridinylbenzamide], the results for the IC50 in test [1] (setting [3]) and in test [2] (setting [5]) were at most 100 nM and at most 20000 nM, respectively.

Consider `Cn1cc(-c2ccc(OCc3ccccc3)c(C(=O)Nc3ccnnc3)c2)cn1` [Example 73, 5-(1-Methyl-1H-pyrazol-4-yl)-2-[(phenylmethyl)oxy]-N-4-pyridazinylbenzamide], for which the results for the IC50 in test [1] (setting [3]) and in test [2] (setting [5]) were at most 10 nM and at most 20000 nM, respectively.

Consider `O=C(Nc1ccnnc1)c1cc(-c2ccncc2)ccc1OCc1ccccc1` [Example 74, 2-[(Phenylmethyl)oxy]-N-4-pyridazinyl-5-(4-pyridinyl)benzamide], for which the IC50 in test [1] (setting [3]) was at most 10 nM; in test [2] (setting [5]) it was at most 20000 nM.

In the case of `CC(O)c1ccc(OCc2ccccc2)c(C(=O)Nc2cccnc2)c1` (centres unmarked) [Example 75, 5-(1-Hydroxyethyl)-2-[(phenylmethyl)oxy]-N-3-pyridinylbenzamide], the figures for the IC50 in test [1] (setting [3]) and in test [2] (setting [5]) were at most 10 nM and at most 20000 nM, respectively.

As for `CC(C)(O)c1ccc(OCc2ccccc2)c(C(=O)Nc2cccnc2)c1` [Example 76, 5-(1-Hydroxy-1-methylethyl)-2-[(phenylmethyl)oxy]-N-3-pyridinylbenzamide], the IC50 in test [1] (setting [3]) is at most 10 nM; in test [2] (setting [5]), at most 20000 nM.

Consider `COC(=O)NCc1ccc(OCc2ccccc2)c(C(=O)Nc2cccnc2)c1` [Example 86, Methyl ({4-[(phenylmethyl)oxy]-3-[(3-pyridinylamino)carbonyl]phenyl}methyl)carbamate], for which the IC50 in test [1] (setting [3]) was at most 10 nM; in test [2] (setting [5]), at most 20000 nM.

For the molecule `CCOC(=O)CCc1ccc(OCc2ccccc2)c(C(=O)Nc2cccnc2)c1` [Example 87, Ethyl 3-{-4-[(phenylmethyl)oxy]-3-[(3-pyridinylamino)carbonyl]phenyl}propanoate], the IC50 in test [1] (setting [3]) was at most 10 nM; in test [2] (setting [5]) it was at most 20000 nM.

For `O=C(O)CCc1ccc(OCc2ccccc2)c(C(=O)Nc2cccnc2)c1` [Example 88, 3-{4-[(phenylmethyl)oxy]-3-[(3-pyridinylamino)carbonyl]phenyl}propanoic acid], the IC50 is at most 100 nM in test [1] (setting [3]) and over 25100 nM in test [2] (setting [5]).

`O=C(Nc1ccnnc1)c1cc(-c2ccncc2)ccc1OCc1ccc(F)cc1` [Example 89, 2-{[(4-Fluorophenyl)methyl]oxy}-N-4-pyridazinyl-5-(4-pyridinyl)benzamide]: the values for the IC50 in test [1] (setting [3]) and in test [2] (setting [5]) were at most 10 nM and at most 20000 nM, respectively.

As to `O=C(Nc1cccnc1)c1cc(-c2ccncc2)ccc1OCc1ccc(F)cc1` [Example 90, 2-{[(4-Fluorophenyl)methyl]oxy}-N-3-pyridinyl-5-(4-pyridinyl)benzamide], the IC50 was at most 10 nM in test [1] (setting [3]) and at most 20000 nM in test [2] (setting [5]).

In the case of `O=C(Nc1ccnnc1)c1cc(-c2cn[nH]c2)ccc1OCc1ccc(F)cc1` [Example 92, 2-{[(4-Fluorophenyl)methyl]oxy}-5-(1H-pyrazol-4-yl)-N-4-pyridazinylbenzamide], the IC50 in test [1] (setting [3]) was at most 10 nM; in test [2] (setting [5]) it was at most 20000 nM.

Regarding `Cn1cc(-c2ccc(OCc3ccc(F)cc3)c(C(=O)Nc3ccnnc3)c2)cn1` [Example 94, 2-{[(4-Fluorophenyl)methyl]oxy}-5-(1-methyl-1H-pyrazol-4-yl)-N-4-pyridazinylbenzamide], the IC50 in test [1] (setting [3]) is at most 100 nM; in test [1] (setting [4]), 12.6 nM; in test [2] (setting [5]), at most 20000 nM; in test [2] (setting [6]), 100 nM.
